Source: patent US9686990B2, “Spiroindolinepiperidine derivatives” (priority 2002, dated 2017)

Key:
Format in all cases: in vivo
[1] = system: Heliothis virescens (Tobacco Budworm); assay: Heliothis virescens egg/larva test on artificial diet; conditions: 96 h, read-out: control of Heliothis virescens
[2] = system: Plutella xylostella (Diamond Back Moth); assay: Plutella xylostella larva test on artificial diet; conditions: 120 h, 18.2 ppm by pipetting on artificial diet, L2 larvae, 5 days incubation, larval mortality, antifeedant, growth regulation
Method: (§1) Test against were performed as follows:
24-well microtiter plate (MTP) with artificial diet was treated with test solutions at an application rate of 18.2 ppm by pipetting. After drying, the MTP's were infested with larvae (L2) (10-15 per well). After an incubation period of 5 days, samples were checked for larval mortality, antifeedant and growth regulation.

[3] = system: Spodoptera littoralis (Egyptian Cotton Leafworm); assay: Spodoptera littoralis cotton leaf disc spray test; conditions: foliar, 72 h, read-out: control of Spodoptera littoralis
Method: as §1
Spodoptera littoralis (Egyptian Cotton Leafworm)

[4] = system: Aedes aegypti (Yellow Fever Mosquito); assay: whole plant or invertebrate; conditions: 48 h, L2 larvae with nutrition mixture, 2 days, mortality and growth inhibition
Method: as §1
Bean leaf discs on agar in 24-well microtiter plates wer sprayed with test solutions at an application rate of 200 ppm. After drying, the leaf discs are infested with mite populations of mixed ages. 8 days later, discs are checked for egg mortality, larval mortality, and adult mortality. […] Aedes aegypti (Yellow Fever Mosquito): 10-15 Aedes larvae (L2) together with a nutrition mixture are placed in 96-well microtiter plates. Test solutions at an application rate of 2 ppm are pipetted into the wells. 2 days later, insects were checked for mortality and growth inhibition.

| SMILES | pest or weed control at 200 ppm [1] | pest or weed control at 18.2 ppm [2] | pest or weed control at 200 ppm [3] | pest or weed control at 2 ppm [4] |
| --- | --- | --- | --- | --- |
| O=C(c1ccnc(Cl)c1)N1CC2(CCN(C/C=C/c3ccccc3)CC2)c2ccccc21 [Compound I-1, 1-(2-Chloropyridin-4-yl)carbonyl-1′-[trans-3-phenylallyl]spiro[indoline-3,4′-piperidine]] | ≥ 80% | ≥ 80% |  |  |
| N#Cc1ccc2c(c1)C1(CCN(C/C=C/c3ccc(Cl)cc3)CC1)CN2C(=O)c1ccnc(Cl)c1 [Compound I-212, 5-Cyano-1-(2-chloropyridin-4-yl)carbonyl-1′-[trans-3-(4-chlorophenyl)allyl]spiro[indoline-3,4′-piperidine]] | ≥ 80% | ≥ 80% | ≥ 80% | ≥ 80% |
| CC(=O)N1CC2(CCN(C/C=C/c3ccc(Cl)cc3)CC2)c2cc(Cl)ccc21 [Compound V-22, 1-Acetyl-5-chloro-1′-[trans-3-(4-chlorophenyl)allyl]spiro[indoline-3,4′-piperidine]] | ≥ 80% | ≥ 80% | ≥ 80% | ≥ 80% |
| O=C(c1ccncc1)N1CC2(CCN(C/C=C/c3ccc(Cl)cc3)CC2)c2cc(Cl)ccc21 [VI-22, 1-(Pyridin-4-yl)-carbonyl-5-chloro-1′-[trans-3-(4-chlorophenyl)allyl]spiro[indoline-3,4′-piperidine]] | ≥ 80% | ≥ 80% | ≥ 80% | ≥ 80% |
| Clc1ccc(/C=C/CN2CCC3(CC2)CN(c2cnccn2)c2ccc(Cl)cc23)cc1 [XIV-22, 1-(2-Pyrazinyl)-5-chloro-1′-[trans-3-(4-chlorophenyl)allyl]spiro[indoline-3,4′-piperidine]] | ≥ 80% | ≥ 80% | ≥ 80% | ≥ 80% |
| Cc1ccc2c(c1)C1(CCN(C/C=C/c3ccc(Cl)cc3)CC1)CN2C(=O)c1ccc(C#N)cc1 [XIX-202, 1-(4-cyanobenzoyl)-5-methyl-1′-[trans-3-(4-chlorophenyl)allyl]spiro[indoline-3,4′-piperidine]] | ≥ 80% |  | ≥ 80% |  |
| O=C(c1ccnc(Cl)c1)N1CC2(CCN(C/C=C/c3ccc(C(F)(F)F)cc3)CC2)c2cc(Cl)ccc21 [XXX-51, 1-(2-chloropyridin-4-yl)carbonyl-5-chloro-1′-[(E)-3-(4-trifluoromethyl-phenyl)allyl]spiro[indolin-3,4′-piperidine]] |  | ≥ 80% | ≥ 80% | ≥ 80% |
| CSc1ccc(/C=C\CN2CCC3(CC2)CN(C(=O)c2ccnc(Cl)c2)c2ccc(Cl)cc23)cc1 [XXX-72, 1-(2-chloropyridin-4-yl)carbonyl-5-chloro-1′-[(Z)-3-(4-methylthiophenyl)allyl]spiro[indolin-3,4′-piperidine]] | ≥ 80% |  |  |  |
| O=C(c1ccnc(Cl)c1)N1CC2(CCN(C/C=C(\F)c3ccc(Cl)cc3)CC2)c2cc(Cl)ccc21 [XXX-90, 1-(2-chloropyridin-4-yl)carbonyl-5-chloro-1′-[(Z)-3-(4-chlorophenyl)-3-fluoro-allyl]spiro[indolin-3,4′-piperidine]] | ≥ 80% | ≥ 80% |  | ≥ 80% |
| NN1CC2(CCN(C/C=C/c3ccc(Cl)cc3)CC2)c2cc(F)ccc21 [XXX-94] | ≥ 80% |  |  | ≥ 80% |
| C/C(=N/N1CC2(CCN(C/C=C/c3ccc(Cl)cc3)CC2)c2cc(Cl)ccc21)N(C)C [XXX-102, N′-[5-chloro-1′-[trans-3-(4-chlorophenyl)allyl]spiro[indoline-3,4′-piperidine]-1-yl]-N,N-dimethylacetamidine] |  |  |  | ≥ 80% |
| COCCNC(=O)N1CC2(CCN(C/C=C/c3ccc(Cl)cc3)CC2)c2cc(F)ccc21 [XXX-105] | ≥ 80% | ≥ 80% | ≥ 80% | ≥ 80% |
| O=C(c1ccnc(Cl)c1)N1CC2(CCN(C/C(F)=C/c3ccc(Cl)cc3)CC2)c2cc(Cl)ccc21 [XXX-113, 1-(2-chloropyridin-4-yl)carbonyl-5-chloro-1′-[(Z)-3-(4-chlorophenyl)-2-fluoro-allyl]spiro[indolin-3,4′-piperidine]] | ≥ 80% | ≥ 80% | ≥ 80% | ≥ 80% |
| O=C(c1ccnc(Cl)c1)N1CC2(CCN(C/C=C(\Cl)c3ccc(Cl)cc3)CC2)c2cc(Cl)ccc21 [XXX-115, 1-(2-chloropyridin-4-yl)carbonyl-5-chloro-1′-[(Z)-3-(4-chlorophenyl)-3-chloro-allyl]spiro[indolin-3,4′-piperidine]] | ≥ 80% |  |  |  |
